These results are taken from US9580435B2, “Pyrrolo[2,3-D]pyrimidine derivatives as CB2 receptor agonists” (priority 2013, dated 2017).

For one test, the target named is T1, human CB2 receptors (Homo sapiens, UniProt P34972).
T1 construct: expressed in transfected cells; host or cells: CHO cells
The test is described as follows: functional cAMP assay, CHO cells expressing human CB2 receptors. Format: cell-based. Conditions: human EC50, functional cAMP assay, CHO cells expressing human CB2; read-out: EC50:CB2. Here is the method:
(§1) CHO cells expressing human CB1 or CB2 receptors are seeded 17-24 hours prior to the experiment 50.000 cells per well in a black 96 well plate with flat clear bottom (Corning Costar #3904) in DMEM (Invitrogen No. 31331), lx HT supplement, with 10% fetal calf serum and incubated at 5% CO2 and 37° C. in a humidified incubator. The growth medium was exchanged with Krebs Ringer Bicarbonate buffer with 1 mM IBMX and incubated at 30° C. for 30 min. Compounds were added to a final assay volume of 100 μl and incubated for 30 min at 30° C. Using the cAMP-Nano-TRF detection kit the assay (Roche Diagnostics) was stopped by the addition of 50 μl lysis reagent (Tris, NaCl, 1.5% Triton X100, 2.5% NP40, 10% NaN3) and 50 μl detection solutions (20 μM mAb Alexa700-cAMP 1:1, and 48 μM Ruthenium-2-AHA-cAMP) and shaken for 2 h at room temperature. The time-resolved energy transfer is measured by a TRF reader (Evotec Technologies GmbH), equipped with a ND:YAG laser as excitation source. The plate is measured twice with the excitation at 355 nm and at the emission with a delay of 100 ns and a gate of 100 ns, total exposure time 10 s at 730 (bandwidth 30 nm) or 645 nm (bandwidth 75 nm), respectively. The FRET signal is calculated as follows: FRET=T730-Alexa730-P(T645-B645) with P=Ru730-B730/Ru645-B645, where T730 is the test well measured at 730 nM, T645 is the test well measured at 645 nm, B730 and B645 are the buffer controls at 730 nm and 645 nm, respectively. cAMP content is determined from the function of a standard curve spanning from 10 μM to 0.13 nM cAMP.
(§2) EC50 values were determined using Activity Base analysis (ID Business Solution, Limited). The EC50 values for a wide range of cannabinoid agonists generated from this assay were in agreement with the values published in the scientific literature.
(In general: Cyclic AMP is a second messenger, typically raised through Gs and lowered through Gi signalling.)

The next test has as its target T2, human CB1 receptors (Homo sapiens, UniProt P21554).
T2 construct: expressed in transfected cells; host or cells: CHO cells
Description: functional cAMP assay, CHO cells expressing human CB1 receptors. Format: cell-based. The procedure: as §1, §2

Bounds are passed on as bounds.

T1 sequence (P34972 whole entry): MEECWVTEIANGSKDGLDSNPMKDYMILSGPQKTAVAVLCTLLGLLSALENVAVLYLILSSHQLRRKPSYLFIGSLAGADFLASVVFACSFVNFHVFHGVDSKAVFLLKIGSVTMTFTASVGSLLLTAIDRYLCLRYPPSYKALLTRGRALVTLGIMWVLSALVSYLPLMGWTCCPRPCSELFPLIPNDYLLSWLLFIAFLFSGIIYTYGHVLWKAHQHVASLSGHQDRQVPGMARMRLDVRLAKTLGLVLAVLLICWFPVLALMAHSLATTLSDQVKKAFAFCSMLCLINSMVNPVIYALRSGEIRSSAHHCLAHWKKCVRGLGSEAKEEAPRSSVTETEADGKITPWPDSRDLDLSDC
T2 sequence (P21554 whole entry): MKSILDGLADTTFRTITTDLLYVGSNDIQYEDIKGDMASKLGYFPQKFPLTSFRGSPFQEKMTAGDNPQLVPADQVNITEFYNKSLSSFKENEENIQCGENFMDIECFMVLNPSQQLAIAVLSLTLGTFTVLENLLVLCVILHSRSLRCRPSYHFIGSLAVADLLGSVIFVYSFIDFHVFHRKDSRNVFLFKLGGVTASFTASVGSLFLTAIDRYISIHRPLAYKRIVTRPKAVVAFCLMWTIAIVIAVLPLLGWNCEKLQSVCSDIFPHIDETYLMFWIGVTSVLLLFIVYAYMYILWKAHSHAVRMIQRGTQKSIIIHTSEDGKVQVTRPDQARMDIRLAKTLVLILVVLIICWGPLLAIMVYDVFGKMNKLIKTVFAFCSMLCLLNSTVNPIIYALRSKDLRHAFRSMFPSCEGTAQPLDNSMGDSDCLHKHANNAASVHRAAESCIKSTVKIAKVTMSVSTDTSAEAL

What is called EC50 is the concentration at which the effect is half-maximal. For the compound `Cn1nnnc1Cn1ccc2c(N3CC4(COC4)C3)nc(C(C)(C)C)nc21` [Example 50, 6-[2-tert-butyl-7-[(1-methyltetrazol-5-yl)methyl]pyrrolo[2,3-d]pyrimidin-4-yl]-2-oxa-6-azaspiro[3.3]heptane], the EC50 on human CB2 receptors was 531 nM; on human CB1 receptors, greater than 10000 nM.
